Reference: patent publication EP0529622A2, “Cloning and characterization of a cardiac adenylyl cyclase” (AMERICAN CYANAMID COMPANY, priority 1991, dated 1993)

Columns and labels:
type V adenylyl cyclase [1] = molecular target: T1, type V adenylyl cyclase (Canis lupus familiaris, UniProt P30803); test: P-site inhibition of adenylyl cyclase activity by adenosine and its analogues, transfected CMT membranes; format: biochemical, canine; conditions: 0-100 µM; membranes preincubated with 5 mM Mn²⁺ and 100 µM forskolin for 10 minutes
T1 construct: expressed in transfected cells; host or cells: CMT cells, crude membrane preparation
T1 sequence (P30803 82-1265 limits assumed): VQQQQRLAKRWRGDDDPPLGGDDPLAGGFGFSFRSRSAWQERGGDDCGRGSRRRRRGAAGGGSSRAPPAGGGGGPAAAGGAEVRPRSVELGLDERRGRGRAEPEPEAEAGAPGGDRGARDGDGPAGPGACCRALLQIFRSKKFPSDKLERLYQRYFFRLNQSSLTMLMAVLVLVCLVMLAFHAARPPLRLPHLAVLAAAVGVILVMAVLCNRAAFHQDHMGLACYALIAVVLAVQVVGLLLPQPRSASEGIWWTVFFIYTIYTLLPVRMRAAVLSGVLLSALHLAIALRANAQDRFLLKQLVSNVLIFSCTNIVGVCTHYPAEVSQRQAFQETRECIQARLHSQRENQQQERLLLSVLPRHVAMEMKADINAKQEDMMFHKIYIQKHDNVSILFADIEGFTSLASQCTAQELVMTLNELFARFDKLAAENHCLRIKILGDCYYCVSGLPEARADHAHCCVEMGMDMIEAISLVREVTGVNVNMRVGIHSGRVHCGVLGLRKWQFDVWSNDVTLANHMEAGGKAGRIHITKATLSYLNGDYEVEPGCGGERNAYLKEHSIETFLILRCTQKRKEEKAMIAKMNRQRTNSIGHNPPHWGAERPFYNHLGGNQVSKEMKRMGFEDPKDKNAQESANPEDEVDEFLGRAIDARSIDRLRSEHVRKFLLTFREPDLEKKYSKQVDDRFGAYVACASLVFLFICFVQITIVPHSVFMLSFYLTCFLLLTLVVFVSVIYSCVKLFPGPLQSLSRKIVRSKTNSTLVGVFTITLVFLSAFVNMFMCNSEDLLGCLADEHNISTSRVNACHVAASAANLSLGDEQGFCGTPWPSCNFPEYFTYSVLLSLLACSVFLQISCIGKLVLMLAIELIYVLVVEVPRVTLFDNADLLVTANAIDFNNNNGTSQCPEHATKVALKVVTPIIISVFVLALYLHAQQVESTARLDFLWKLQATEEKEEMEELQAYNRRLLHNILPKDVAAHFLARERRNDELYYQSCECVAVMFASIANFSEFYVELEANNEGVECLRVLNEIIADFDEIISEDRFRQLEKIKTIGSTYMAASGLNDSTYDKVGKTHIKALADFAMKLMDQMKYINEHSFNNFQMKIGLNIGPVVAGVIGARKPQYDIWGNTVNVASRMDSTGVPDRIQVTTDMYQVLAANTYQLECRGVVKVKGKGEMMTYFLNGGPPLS
Method: Figure 7 depicts the effect of adenosine and its analogues on type V adenylyl cyclase activity. Membrane (transfected with pcDNA112-72 or control) are preincubated with 5 mM Mn²⁺ and 100 µM forskolin for 10 minutes prior to the assay. […] Each point in the average of triplicate determinations.
Another feature of adenylyl cyclase is its inhibition through an allosteric purine binding or P-site (6). […] This is more apparent when the enzyme is first activated by the addition of Mn²⁺, forskolin. The order of potency was as follows: 2'-deoxy-3'-AMD>3'-AMP>2'-deoxyadenosine>adenosine (Figure 7).

untransfected CMT cells = test: Adenylyl cyclase activity assay, membrane from untransfected CMT cells (control); format: biochemical, monkey; conditions: Control (untransfected CMT cell membrane), ± standard error
Method: The adenylyl cyclase activity of a cell transfected with the expression vector pcDNA1 carrying cardiac adenylyl cyclase cDNA is assayed as follows. The transfected CMT cells are washed twice with PBS and scraped in three ml of cold buffer containing 50 mM Tris (pH8.0), 1 mM EDTA, 10 µM PMSF (phenylmethylsulfonylfluoride), 100 U leupeptin, and 50 U egg white trypsin inhibitor (ETI) on ice. The membrane is homogenated in Polytron™ (setting 6 for 10 seconds) and is centrifuged at 800 x g for 10 minutes at 4 °C. The supernatant is further centrifuged at 100 x g for 40 minutes at 4 °C. The resultant pellet is resuspended in 50 mM Tris (pH 8.0), 1 mM EDTA, 1 µM PMSF, 50 U leupeptin, and 50 U ETI, to a concentration of 5 µg/µl. This crude membrane solution is used for the adenylyl cyclase asssay.
The adenylyl cyclase assay is performed by the method of Salomon (21). Briefly, the crude membranes from CMT cells are resuspended in a solution containing 1 mM creatine phosphate, 8 µg/ml creatine phophokinase, 4 mM HEPES (pH 8.0), 2 mM MgCl₂, 0.1 mM c-AMP, 0.1 mM ATP, and ³²P-ATP (0.2-5 µCi/assay tube). […] Cyclic-AMP is separated from ATP by passing through Dowex and alumina columns, and the radioactivity is counted by scintillation counter. The protein concentration of the membranes used are measured by Bradford's method (22), with bovine serum albumin as a standard. […]

cardiac adenylyl cyclase = molecular target: T2, cardiac adenylyl cyclase (Canis lupus familiaris, UniProt P30803); test: Adenylyl cyclase activity assay (method of Salomon), crude membranes of CMT cells transfected with pcDNA113-72; format: biochemical, canine; conditions: for fold more stimulation than the control: transfected vs untransfected control, 100 µM forskolin
T2 construct: The expression vector containing the full length cDNA is designated pcDNA113-72; expressed in transfected cells; host or cells: monkey kidney CMT cells (COS derivative), transient transfection with pcDNA113-72, crude membrane preparation
T2 sequence (P30803 82-1265 limits assumed): as above
Excerpt: Biochemical characterization of the protein product encoded by this cDNA is obtained using a CMT cell-expression system. The CMT cell is a derivative of the COS cell in which expression of the T-antigen is under the control of a metallothionein promoter. Thus the accumulation of T-antigen in the cell is further enhanced by the addition of heavy metal ion in the medium. The adenylyl cyclase cDNA construct (113-72) is cloned into pcDNA 1, a CMV promoter-driven expression vector with an SV40 enhancer-origin of replication element. A crude membrane preparation is prepared from the transfected CMT cells and a variety of agents known to stimulate adenylyl cyclase are examined (Table I). There is a dose-dependent relationship between the amount of plasmid transfected and the resultant adenylyl cyclase activity, both basal and forskolin-stimulated (0-30 µg per transfection). When the plasmid without insert is transfected, the resultant adenylyl cyclase activity is slightly (∼15%) lower than that of mock-transfected cells. All activities are enhanced several-fold in the transfected cells, as compared to controls, with the forskolin-stimulated activity showing the greatest increase in activity (>6-fold increase over control).
In an example of such expression, twenty µg of the purified plasmid pcDNA 113-72 are transfected into the monkey kidney CMT cells using a modified method of Golub et al. (17). Briefly, the cells are grown to 80% confluence in Dulbecco's modification of Eagle's Medium, 10% fetal calf serum, 2 mM glutamine, 4.5 mg/ml glucose, 10 µg/ml streptomycin sulfate and 60 µg/ml penicillin K. After washing with PBS twice, 0.5 ml of trypsin solution is added. The cells are incubated for 10 minutes, and 20 µg of purified plasmid resuspended in 4 ml of DMEM containing 400 µg/ml DEAE dextran and 0.1 mM chloroquine is added. The cells are incubated for four hours followed by 10% DMSO shock for two minutes. After washing with PBS twice, the induction media, which contains 10% fetal calf serum (FCS), 2 mM glutamine, […], 2 mM penicillin and streptomycin, and 1 µM CdCl₂, 0.1 µM ZnCl₂ in DMEM, is added. The plate is incubated at 37 °C for 72 hours before harvesting.
The biochemical property of this cardiac adenylyl cyclase is examined in a transient expression system using CMT cells (a derivative of COS cells). CMT cells contain T-antigen driven by a methalothionein promoter in the genome. Thus by induction with heavy metal ion in the medium, CMT cells could produce more T-antigen than COS cells. A 4.3 kb fragment of the adenylyl cyclase cDNA (#113-72) containing the whole coding sequence is inserted into the pcDNA1 plasmid described above (Invitrogen).
The adenylyl cyclase activity of a cell transfected with the expression vector pcDNA1 carrying cardiac adenylyl cyclase cDNA is assayed as follows. The transfected CMT cells are washed twice with PBS and scraped in three ml of cold buffer containing 50 mM Tris (pH8.0), 1 mM EDTA, 10 µM PMSF (phenylmethylsulfonylfluoride), 100 U leupeptin, and 50 U egg white trypsin inhibitor (ETI) on ice. The membrane is homogenated in Polytron™ (setting 6 for 10 seconds) and is centrifuged at 800 x g for 10 minutes at 4 °C. The supernatant is further centrifuged at […] for 40 minutes at 4 °C. The resultant pellet is resuspended in 50 mM Tris (pH 8.0), 1 mM EDTA, 1 µM PMSF, 50 U leupeptin, and 50 U ETI, to a concentration of 5 µg/µl. This crude membrane solution is used for the adenylyl cyclase asssay. […]

type V adenylyl cyclase [2] = molecular target: T1, type V adenylyl cyclase; test: Calcium/calmodulin sensitivity of adenylyl cyclase activity, transfected CMT cell membranes; format: biochemical, canine; conditions: 30 µg crude CMT cell membrane; 0-1 mM calcium (CaCl₂); membranes washed with EGTA
Method: Figure 6 depicts the effect of calcium on type V adenylyl cyclase activity. Adenylyl cyclase activity (CMT cells transfected with pcDNA113-72 or cardiac sarcolemma) is measured in the presence of increasig concentrations of calcium (0-1 mM). Cardiac sarcolemma is prepared as described (26). Both membrane preparations are first washed with EGTA prior to assay (27). Similar results are obtained in three independent experiments. The efficiency of transfection is confirmed by at least a 4-fold increase in both basal and forskolin-stimulated adenylyl cyclase activities over control.
The calcium/calmodulin sensitivity of this protein is also assessed. […] Thirty µg of the crude CMT cell membrane preparation are incubated in the presence of increasing concentrations of CaCl₂. […] The adenylyl cyclase activity also is assessed in canine cardiac sarcolemma.

[3] = 10 mM sodium fluoride, 100 µM GTPγS

Nc1ncnc2c1ncn2[C@@H]1O[C@H](CO)[C@@H](OP(=O)(O)O)[C@H]1O [3'-AMP]
order of potency of inhibition of adenylyl cyclase activity (type V adenylyl cyclase [1]): 2'-deoxy-3'-AMD>3'-AMP>2'-deoxyadenosine>adenosine

Nc1ncnc2c1ncn2[C@H]1C[C@H](OP(=O)(O)O)[C@@H](CO)O1 [2'-deoxy-3'-AMD]
order of potency of inhibition of adenylyl cyclase activity (type V adenylyl cyclase [1]): 2'-deoxy-3'-AMD>3'-AMP>2'-deoxyadenosine>adenosine

Nc1nc2c(ncn2[C@@H]2O[C@H](COP(=O)(O)OP(=O)(O)OP(O)(O)=S)[C@@H](O)[C@H]2O)c(=O)[nH]1 [GTPγS]
adenylyl cyclase activity, GTPγS (untransfected CMT cells; 100 µM GTPγS): 30± 4.5 | adenylyl cyclase activity, GTPγS (cardiac adenylyl cyclase; Transfected CMT cell membranes, 100 µM GTPγS, ± standard error): 84±12.5 | fold more stimulation than the control (cardiac adenylyl cyclase; [3]): 2.8 fold

Nc1ncnc2c1ncn2[C@@H]1O[C@H](CO)[C@@H](O)[C@H]1O [adenosine]
order of potency of inhibition of adenylyl cyclase activity (type V adenylyl cyclase [1]): 2'-deoxy-3'-AMD>3'-AMP>2'-deoxyadenosine>adenosine

manganese
adenylyl cyclase activity stimulated over the control (cardiac adenylyl cyclase; in the presence of 5 mM manganese): more than 10 fold

CaCl₂ [calcium]
effect of calcium on adenylyl cyclase activity (type V adenylyl cyclase [2]): inhibited in a concentration-dependent manner

Nc1ncnc2c1ncn2[C@H]1C[C@H](O)[C@@H](CO)O1 [2'-deoxyadenosine]
order of potency of inhibition of adenylyl cyclase activity (type V adenylyl cyclase [1]): 2'-deoxy-3'-AMD>3'-AMP>2'-deoxyadenosine>adenosine

[F-].[Na+] [NaF, sodium fluoride]
adenylyl cyclase activity, NaF (untransfected CMT cells; 10 mM sodium fluoride): 15±3.1 | adenylyl cyclase activity, NaF (cardiac adenylyl cyclase; Transfected CMT cell membranes, 10 mM sodium fluoride, ± standard error): 41±4.7 | fold more stimulation than the control (cardiac adenylyl cyclase; [3]): 2.7 fold
